Assay results taken from ChEMBL document CHEMBL1201862, “PubChem BioAssay data set” (2004).
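Growth conditions: 96-well plates. Treatment: test compound, 48 hours, 5 concentrations. Analysis: linear interpolation between bracketing concentrations; unreached endpoints set to highest concentration. At the GI50, growth is halved.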 The source made the active and inactive calls. Rule as the data show it: active = GI50 up to about 1.1 µM and inactive = higher.

Experiments:
Assay in all cases: NCI-60 cell line screen, 48 h
K562 = tested on: K562
M19-MEL = tested on: M19-MEL
SNB-78 = tested on: SNB-78
UO-31 = tested on: UO-31
HOP-92 = tested on: HOP-92
UACC-62 = tested on: UACC-62
CCRF-CEM = tested on: CCRF-CEM
DMS-273 = tested on: DMS-273
A498 = tested on: A498
KM-20L2 = tested on: KM-20L2
SK-MEL-28 = tested on: SK-MEL-28
NCI-H460 = tested on: NCI-H460
HCT-116 = tested on: HCT-116
SK-OV-3 = tested on: SK-OV-3
IGROV-1 = tested on: IGROV-1
SN12C = tested on: SN12C
XF498 = tested on: XF498
RPMI-8226 = tested on: RPMI-8226
A549 = tested on: A549
SNB-19 = tested on: SNB-19
U-251 = tested on: U-251
OVCAR-5 = tested on: OVCAR-5
EKVX = tested on: EKVX
OVCAR-4 = tested on: OVCAR-4
Malme-3M = tested on: Malme-3M
KM12 = tested on: KM12
COLO 205 = tested on: COLO 205
DLD-1 = tested on: DLD-1
OVCAR-3 = tested on: OVCAR-3
NCI-H226 = tested on: NCI-H226
CAKI-1 = tested on: CAKI-1
SW-620 = tested on: SW-620
NCI-H522 = tested on: NCI-H522
HL-60 = tested on: HL-60
DMS-114 = tested on: DMS-114
SNB-75 = tested on: SNB-75
UACC-257 = tested on: UACC-257
SF-268 = tested on: SF-268
HT-29 = tested on: HT-29
NCI-H23 = tested on: NCI-H23
SF-295 = tested on: SF-295
SF-539 = tested on: SF-539
MCF7 = tested on: MCF7
OVCAR-8 = tested on: OVCAR-8
SK-MEL-5 = tested on: SK-MEL-5
HCC 2998 = tested on: HCC 2998
LOX IMVI = tested on: LOX IMVI
HCT-15 = tested on: HCT-15
SK-MEL-2 = tested on: SK-MEL-2
RXF 393 = tested on: RXF 393
NCI/ADR-RES = tested on: NCI/ADR-RES
HOP-18 = tested on: HOP-18
HOP-62 = tested on: HOP-62
MOLT-4 = tested on: MOLT-4
786-0 = tested on: 786-0
LXFL 529 = tested on: LXFL 529
ACHN = tested on: ACHN
M14 = tested on: M14
SR = tested on: SR
TK-10 = tested on: TK-10

Structure (SMILES): COC(=O)C1OC(Oc2cc(O)c3c(=O)cc(-c4ccc(O)cc4)oc3c2)C(O)C(O)C1O (stereo unspecified)
- GI50 (K562): > 100 µM (inactive)
- GI50 (M19-MEL): > 100 µM (inactive)
- GI50 (SNB-78): > 100 µM (inactive)
- GI50 (UO-31): > 100 µM (inactive)
- GI50 (HOP-92): > 100 µM (inactive)
- GI50 (UACC-62): > 100 µM (inactive)
- GI50 (CCRF-CEM): > 100 µM (inactive)
- GI50 (DMS-273): > 100 µM (inactive)
- GI50 (A498): > 100 µM (inactive)
- GI50 (KM-20L2): > 100 µM (inactive)
- GI50 (SK-MEL-28): > 100 µM (inactive)
- GI50 (NCI-H460): > 100 µM (inactive)
- GI50 (HCT-116): > 100 µM (inactive)
- GI50 (SK-OV-3): > 100 µM (inactive)
- GI50 (IGROV-1): > 100 µM (inactive)
- GI50 (SN12C): > 100 µM (inactive)
- GI50 (XF498): > 100 µM (inactive)
- GI50 (RPMI-8226): > 100 µM (inactive)
- GI50 (A549): > 100 µM (inactive)
- GI50 (SNB-19): > 100 µM (inactive)
- GI50 (U-251): > 100 µM (inactive)
- GI50 (OVCAR-5): > 100 µM (inactive)
- GI50 (EKVX): > 100 µM (inactive)
- GI50 (OVCAR-4): > 100 µM (inactive)
- GI50 (Malme-3M): > 100 µM (inactive)
- GI50 (KM12): > 100 µM (inactive)
- GI50 (COLO 205): > 100 µM (inactive)
- GI50 (DLD-1): > 100 µM (inactive)
- GI50 (OVCAR-3): > 100 µM (inactive)
- GI50 (NCI-H226): > 100 µM (inactive)
- GI50 (CAKI-1): > 100 µM (inactive)
- GI50 (SW-620): > 100 µM (inactive)
- GI50 (NCI-H522): > 100 µM (inactive)
- GI50 (HL-60): > 100 µM (inactive)
- GI50 (DMS-114): > 100 µM (inactive)
- GI50 (SNB-75): > 100 µM (inactive)
- GI50 (UACC-257): > 100 µM (inactive)
- GI50 (SF-268): > 100 µM (inactive)
- GI50 (HT-29): > 100 µM (inactive)
- GI50 (NCI-H23): > 100 µM (inactive)
- GI50 (SF-295): > 100 µM (inactive)
- GI50 (SF-539): > 100 µM (inactive)
- GI50 (MCF7): > 100 µM (inactive)
- GI50 (OVCAR-8): > 100 µM (inactive)
- GI50 (SK-MEL-5): > 100 µM (inactive)
- GI50 (HCC 2998): > 100 µM (inactive)
- GI50 (LOX IMVI): > 100 µM (inactive)
- GI50 (HCT-15): > 100 µM
- GI50 (SK-MEL-2): > 100 µM (inactive)
- GI50 (RXF 393): > 100 µM (inactive)
- GI50 (NCI/ADR-RES): > 100 µM (inactive)
- GI50 (HOP-18): > 100 µM (inactive)
- GI50 (HOP-62): > 100 µM (inactive)
- GI50 (MOLT-4): > 100 µM (inactive)

Structure (SMILES): Cn1ccc2c(C(=O)c3ccccc3)cccc2c1=O
- GI50 (786-0): 39.3 µM (inactive)
- GI50 (M19-MEL): 74 µM (inactive)
- GI50 (HOP-92): 49.2 µM (inactive)
- GI50 (UACC-62): 31.6 µM (inactive)
- GI50 (CCRF-CEM): 32.7 µM (inactive)
- GI50 (DMS-273): 34.1 µM (inactive)
- GI50 (SK-MEL-28): 60.5 µM (inactive)
- GI50 (NCI-H460): 39.8 µM (inactive)
- GI50 (HCT-116): 36.7 µM (inactive)
- GI50 (SK-OV-3): 70.8 µM (inactive)
- GI50 (IGROV-1): > 100 µM (inactive)
- GI50 (SN12C): 59.2 µM (inactive)
- GI50 (XF498): 47.1 µM (inactive)
- GI50 (RPMI-8226): 33.2 µM (inactive)
- GI50 (A549): 57.4 µM (inactive)
- GI50 (LXFL 529): 67.9 µM (inactive)
- GI50 (EKVX): > 100 µM (inactive)
- GI50 (ACHN): 85.9 µM (inactive)
- GI50 (M14): 36.1 µM (inactive)
- GI50 (OVCAR-4): 95.5 µM (inactive)
- GI50 (Malme-3M): 45.4 µM (inactive)
- GI50 (KM12): 42.9 µM (inactive)
- GI50 (COLO 205): 44.7 µM (inactive)
- GI50 (DLD-1): 44.6 µM (inactive)
- GI50 (OVCAR-3): 36.8 µM (inactive)
- GI50 (SR): 56.1 µM (inactive)
- GI50 (CAKI-1): 68.2 µM (inactive)
- GI50 (SW-620): 37.9 µM (inactive)
- GI50 (NCI-H522): 21.3 µM (inactive)
- GI50 (HL-60): 24.9 µM (inactive)
- GI50 (DMS-114): 38.5 µM (inactive)
- GI50 (SNB-75): 23.4 µM (inactive)
- GI50 (UACC-257): > 100 µM (inactive)
- GI50 (SF-268): 97.7 µM (inactive)
- GI50 (HT-29): 44.2 µM (inactive)
- GI50 (SF-295): 20.7 µM (inactive)
- GI50 (SF-539): 29.6 µM (inactive)
- GI50 (OVCAR-8): 56 µM (inactive)
- GI50 (SK-MEL-5): 28.8 µM (inactive)
- GI50 (HCC 2998): 89.5 µM (inactive)
- GI50 (LOX IMVI): 54.3 µM (inactive)
- GI50 (HCT-15): 25.8 µM
- GI50 (SK-MEL-2): 57.7 µM (inactive)
- GI50 (RXF 393): 47.5 µM (inactive)
- GI50 (HOP-62): 31 µM (inactive)
- GI50 (MOLT-4): 38 µM (inactive)
- GI50 (TK-10): > 100 µM (inactive)
